ChEMBL document CHEMBL1148776, “Structure-based optimization of protein tyrosine phosphatase 1B inhibitors: from the active site to the second phosphotyrosine binding site” (J Med Chem, 2007)

What was measured:
[1] = molecular target: T1, Receptor-type tyrosine-protein phosphatase C (Homo sapiens, UniProt P08575); test: Inhibition of human recombinant CD45
T1 sequence (P08575 whole entry): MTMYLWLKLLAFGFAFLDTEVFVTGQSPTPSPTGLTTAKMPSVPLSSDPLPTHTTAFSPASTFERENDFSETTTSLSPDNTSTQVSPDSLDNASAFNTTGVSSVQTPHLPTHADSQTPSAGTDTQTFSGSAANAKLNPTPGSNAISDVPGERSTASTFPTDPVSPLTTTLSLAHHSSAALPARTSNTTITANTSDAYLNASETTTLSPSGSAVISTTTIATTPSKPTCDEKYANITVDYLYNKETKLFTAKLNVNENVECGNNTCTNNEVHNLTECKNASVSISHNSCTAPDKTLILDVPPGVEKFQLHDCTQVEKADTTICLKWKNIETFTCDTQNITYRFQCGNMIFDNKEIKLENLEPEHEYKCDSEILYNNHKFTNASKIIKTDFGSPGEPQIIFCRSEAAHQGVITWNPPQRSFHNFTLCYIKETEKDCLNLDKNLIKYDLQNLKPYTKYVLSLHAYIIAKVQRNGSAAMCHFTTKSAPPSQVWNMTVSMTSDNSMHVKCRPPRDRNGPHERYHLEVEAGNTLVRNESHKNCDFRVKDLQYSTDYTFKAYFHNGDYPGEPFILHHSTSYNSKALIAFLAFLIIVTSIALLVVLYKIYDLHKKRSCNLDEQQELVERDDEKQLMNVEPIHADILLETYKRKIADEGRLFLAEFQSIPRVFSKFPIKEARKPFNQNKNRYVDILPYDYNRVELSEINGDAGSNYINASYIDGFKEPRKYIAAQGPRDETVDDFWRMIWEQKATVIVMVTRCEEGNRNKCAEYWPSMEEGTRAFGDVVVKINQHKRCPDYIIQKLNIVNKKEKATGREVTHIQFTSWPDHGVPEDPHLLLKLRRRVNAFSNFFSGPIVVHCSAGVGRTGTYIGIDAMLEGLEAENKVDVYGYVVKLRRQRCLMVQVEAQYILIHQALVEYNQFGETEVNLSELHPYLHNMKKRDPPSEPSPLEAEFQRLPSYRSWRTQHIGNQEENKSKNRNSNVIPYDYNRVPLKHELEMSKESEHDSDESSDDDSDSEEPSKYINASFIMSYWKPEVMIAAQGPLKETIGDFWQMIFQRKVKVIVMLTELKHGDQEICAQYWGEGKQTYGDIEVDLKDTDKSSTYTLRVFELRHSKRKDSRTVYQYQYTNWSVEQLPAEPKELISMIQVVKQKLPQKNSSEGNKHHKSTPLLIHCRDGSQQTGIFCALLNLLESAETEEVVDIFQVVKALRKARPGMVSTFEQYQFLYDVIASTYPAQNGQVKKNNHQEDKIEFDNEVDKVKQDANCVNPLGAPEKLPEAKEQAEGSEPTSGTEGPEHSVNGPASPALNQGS

[2] = Drug level in C57/B6 mouse muscle at 10 mg/kg, ip after 7 hrs; assay type: ADME, organism-based, Muscle tissue; design: dose 10 mg/kg, route intraperitoneal; details: read-out: Drug uptake
Cytochrome P450 2D6 = Cytochrome P450 2D6 (Homo sapiens, UniProt P10635); test: Inhibition of CYP2D6; assay type: ADME
[3] = Stability in mouse liver microsomes; assay type: ADME, Microsome
[4] = Aqueous solubility at pH 7.4; assay type: physicochemical
[5] = Stability in rat liver microsomes; assay type: ADME, Microsome
Cytochrome P450 1A2 = molecular target: T2, Cytochrome P450 1A2 (Homo sapiens, UniProt P05177); test: Inhibition of CYP1A2; assay type: ADME
T2 sequence (P05177 whole entry): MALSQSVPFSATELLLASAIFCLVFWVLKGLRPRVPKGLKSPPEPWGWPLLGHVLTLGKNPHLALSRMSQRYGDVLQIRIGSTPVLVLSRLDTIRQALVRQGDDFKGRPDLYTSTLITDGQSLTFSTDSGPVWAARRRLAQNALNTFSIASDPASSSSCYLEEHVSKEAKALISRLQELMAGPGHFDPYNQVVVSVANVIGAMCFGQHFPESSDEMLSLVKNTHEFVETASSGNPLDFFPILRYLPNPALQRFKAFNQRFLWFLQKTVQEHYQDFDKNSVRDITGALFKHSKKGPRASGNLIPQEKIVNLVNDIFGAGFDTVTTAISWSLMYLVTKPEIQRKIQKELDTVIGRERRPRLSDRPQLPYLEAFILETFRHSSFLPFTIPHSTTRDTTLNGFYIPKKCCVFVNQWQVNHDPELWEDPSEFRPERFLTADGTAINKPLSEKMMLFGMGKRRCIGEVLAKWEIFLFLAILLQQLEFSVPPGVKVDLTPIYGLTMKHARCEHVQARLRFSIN

Cytochrome P450 2C8 = molecular target: T3, Cytochrome P450 2C8 (Homo sapiens, UniProt P10632); test: Inhibition of CYP2C8; assay type: ADME
T3 sequence (P10632 whole entry): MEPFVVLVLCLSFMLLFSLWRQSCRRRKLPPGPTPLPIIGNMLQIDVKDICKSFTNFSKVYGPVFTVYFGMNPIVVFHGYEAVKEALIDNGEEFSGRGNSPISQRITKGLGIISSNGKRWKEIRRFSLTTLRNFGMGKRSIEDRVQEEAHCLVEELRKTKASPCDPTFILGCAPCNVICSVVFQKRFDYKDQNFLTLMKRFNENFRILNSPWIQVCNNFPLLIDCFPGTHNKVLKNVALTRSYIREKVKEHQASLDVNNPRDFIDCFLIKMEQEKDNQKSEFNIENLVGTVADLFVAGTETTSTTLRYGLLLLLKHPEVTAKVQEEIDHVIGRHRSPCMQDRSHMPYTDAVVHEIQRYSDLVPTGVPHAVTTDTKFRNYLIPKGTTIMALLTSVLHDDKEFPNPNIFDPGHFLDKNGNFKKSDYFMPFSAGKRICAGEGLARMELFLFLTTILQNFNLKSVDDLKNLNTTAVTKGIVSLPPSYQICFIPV

Cytochrome P450 2C9 = Cytochrome P450 2C9 (Homo sapiens, UniProt P11712); test: Inhibition of CYP2C9; assay type: ADME
Cytochrome P450 2A6 = molecular target: T4, Cytochrome P450 2A6 (Homo sapiens, UniProt P11509); test: Inhibition of CYP2A6; assay type: ADME
T4 sequence (P11509 whole entry): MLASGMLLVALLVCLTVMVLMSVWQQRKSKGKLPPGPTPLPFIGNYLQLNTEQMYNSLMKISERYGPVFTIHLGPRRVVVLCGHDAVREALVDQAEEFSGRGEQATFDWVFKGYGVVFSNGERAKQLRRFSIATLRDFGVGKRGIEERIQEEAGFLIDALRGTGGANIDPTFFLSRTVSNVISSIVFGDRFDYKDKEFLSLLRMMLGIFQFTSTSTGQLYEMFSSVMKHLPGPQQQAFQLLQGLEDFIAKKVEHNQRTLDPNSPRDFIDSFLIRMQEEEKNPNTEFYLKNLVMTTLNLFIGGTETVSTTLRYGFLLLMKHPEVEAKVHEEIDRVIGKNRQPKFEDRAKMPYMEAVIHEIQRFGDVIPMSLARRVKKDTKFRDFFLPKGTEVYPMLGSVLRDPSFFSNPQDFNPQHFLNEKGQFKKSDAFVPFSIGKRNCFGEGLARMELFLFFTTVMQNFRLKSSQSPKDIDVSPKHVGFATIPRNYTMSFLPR

Hepatocyte = test: Decrease in drug uptake in rat hepatocytes in presence of verapamil; assay type: ADME, cell-based; design: scale not given: the % may be the effect or the level left
[6] = Cmax in C57/B6 mouse plasma at 10 mg/kg, ip after 1 hr; assay type: ADME, organism-based; design: dose 10 mg/kg, route intraperitoneal
[7] = Plasma clearance in Sprague-Dawley rat at 2 mg/kg, iv; assay type: ADME, organism-based; design: dose 2 mg/kg, route intravenous
[8] = Drug level in C57/B6 mouse liver at 10 mg/kg, ip after 7 hrs; assay type: ADME, organism-based; design: dose 10 mg/kg, route intraperitoneal; details: read-out: Drug uptake
[9] = Drug level in C57/B6 mouse liver at 10 mg/kg, ip after 1 hr; assay type: ADME, organism-based; design: dose 10 mg/kg, route intraperitoneal; details: read-out: Drug uptake
[10] = Permeability coefficient across human Caco-2 cells; assay type: ADME, cell-based; details: read-out: permeability
[11] = Stability in human liver microsomes; assay type: ADME, Microsome
Cytochrome P450 3A4 = Cytochrome P450 3A4 (Homo sapiens, UniProt P08684); test: Inhibition of CYP3A4; assay type: ADME
[12] = Half life in Sprague-Dawley rat at 2 mg/kg, iv; assay type: ADME, organism-based; design: dose 2 mg/kg, route intravenous; details: in vivo
[13] = molecular target: Receptor-type tyrosine-protein phosphatase F (Homo sapiens, UniProt P10586); test: Inhibition of human recombinant LAR
[14] = Drug level in C57/B6 mouse plasma at 10 mg/kg, ip after 7 hrs; assay type: ADME, organism-based; design: dose 10 mg/kg, route intraperitoneal; details: read-out: Drug uptake
Cytochrome P450 2C19 = Cytochrome P450 2C19 (Homo sapiens, UniProt P33261); test: Inhibition of CYP2C19; assay type: ADME
[15] = Drug level in C57/B6 mouse muscle at 10 mg/kg, ip after 1 hr; assay type: ADME, organism-based, Muscle tissue; design: dose 10 mg/kg, route intraperitoneal; details: read-out: Drug uptake

Sequence of Cytochrome P450 2C9 (P11712 whole entry): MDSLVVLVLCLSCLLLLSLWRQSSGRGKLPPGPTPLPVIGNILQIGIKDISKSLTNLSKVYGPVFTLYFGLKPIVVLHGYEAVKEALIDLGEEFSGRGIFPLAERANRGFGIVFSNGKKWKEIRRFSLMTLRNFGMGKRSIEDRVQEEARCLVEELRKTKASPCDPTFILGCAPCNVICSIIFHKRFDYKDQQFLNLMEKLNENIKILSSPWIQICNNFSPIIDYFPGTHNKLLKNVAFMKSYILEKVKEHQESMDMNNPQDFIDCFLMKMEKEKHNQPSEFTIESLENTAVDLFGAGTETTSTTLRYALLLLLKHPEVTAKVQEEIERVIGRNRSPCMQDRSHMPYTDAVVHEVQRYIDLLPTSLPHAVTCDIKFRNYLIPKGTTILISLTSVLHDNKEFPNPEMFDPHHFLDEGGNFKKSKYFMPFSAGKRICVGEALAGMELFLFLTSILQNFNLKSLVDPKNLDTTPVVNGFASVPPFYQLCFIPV
Sequence of Cytochrome P450 2D6 (P10635 whole entry): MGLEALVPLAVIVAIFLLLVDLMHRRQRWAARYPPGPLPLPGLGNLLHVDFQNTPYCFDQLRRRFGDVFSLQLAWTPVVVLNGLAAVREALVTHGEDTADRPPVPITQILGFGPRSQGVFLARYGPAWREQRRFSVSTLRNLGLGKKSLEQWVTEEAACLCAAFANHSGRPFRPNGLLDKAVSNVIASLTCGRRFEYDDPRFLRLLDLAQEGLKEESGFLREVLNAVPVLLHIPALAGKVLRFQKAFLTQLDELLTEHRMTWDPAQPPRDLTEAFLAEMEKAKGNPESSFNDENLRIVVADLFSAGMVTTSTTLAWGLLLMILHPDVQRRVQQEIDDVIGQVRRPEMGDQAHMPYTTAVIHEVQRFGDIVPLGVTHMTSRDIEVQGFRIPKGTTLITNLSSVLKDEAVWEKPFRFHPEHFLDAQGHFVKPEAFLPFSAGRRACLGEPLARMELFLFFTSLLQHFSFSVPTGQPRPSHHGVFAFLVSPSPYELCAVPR
Sequence of Cytochrome P450 3A4 (P08684 whole entry): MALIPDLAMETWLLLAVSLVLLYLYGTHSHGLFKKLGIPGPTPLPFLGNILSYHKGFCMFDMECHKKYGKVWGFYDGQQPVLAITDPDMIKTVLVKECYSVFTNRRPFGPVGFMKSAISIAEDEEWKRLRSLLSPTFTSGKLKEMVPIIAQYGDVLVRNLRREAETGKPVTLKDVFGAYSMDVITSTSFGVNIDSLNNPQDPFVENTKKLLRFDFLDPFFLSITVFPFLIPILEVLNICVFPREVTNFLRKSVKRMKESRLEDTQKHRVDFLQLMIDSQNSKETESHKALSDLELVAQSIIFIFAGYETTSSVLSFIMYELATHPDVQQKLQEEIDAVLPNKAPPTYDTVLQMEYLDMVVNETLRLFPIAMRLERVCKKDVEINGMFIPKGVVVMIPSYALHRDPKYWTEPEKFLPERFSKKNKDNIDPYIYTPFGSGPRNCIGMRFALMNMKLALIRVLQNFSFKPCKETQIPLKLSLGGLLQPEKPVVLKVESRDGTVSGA
Sequence of Receptor-type tyrosine-protein phosphatase F (P10586 whole entry): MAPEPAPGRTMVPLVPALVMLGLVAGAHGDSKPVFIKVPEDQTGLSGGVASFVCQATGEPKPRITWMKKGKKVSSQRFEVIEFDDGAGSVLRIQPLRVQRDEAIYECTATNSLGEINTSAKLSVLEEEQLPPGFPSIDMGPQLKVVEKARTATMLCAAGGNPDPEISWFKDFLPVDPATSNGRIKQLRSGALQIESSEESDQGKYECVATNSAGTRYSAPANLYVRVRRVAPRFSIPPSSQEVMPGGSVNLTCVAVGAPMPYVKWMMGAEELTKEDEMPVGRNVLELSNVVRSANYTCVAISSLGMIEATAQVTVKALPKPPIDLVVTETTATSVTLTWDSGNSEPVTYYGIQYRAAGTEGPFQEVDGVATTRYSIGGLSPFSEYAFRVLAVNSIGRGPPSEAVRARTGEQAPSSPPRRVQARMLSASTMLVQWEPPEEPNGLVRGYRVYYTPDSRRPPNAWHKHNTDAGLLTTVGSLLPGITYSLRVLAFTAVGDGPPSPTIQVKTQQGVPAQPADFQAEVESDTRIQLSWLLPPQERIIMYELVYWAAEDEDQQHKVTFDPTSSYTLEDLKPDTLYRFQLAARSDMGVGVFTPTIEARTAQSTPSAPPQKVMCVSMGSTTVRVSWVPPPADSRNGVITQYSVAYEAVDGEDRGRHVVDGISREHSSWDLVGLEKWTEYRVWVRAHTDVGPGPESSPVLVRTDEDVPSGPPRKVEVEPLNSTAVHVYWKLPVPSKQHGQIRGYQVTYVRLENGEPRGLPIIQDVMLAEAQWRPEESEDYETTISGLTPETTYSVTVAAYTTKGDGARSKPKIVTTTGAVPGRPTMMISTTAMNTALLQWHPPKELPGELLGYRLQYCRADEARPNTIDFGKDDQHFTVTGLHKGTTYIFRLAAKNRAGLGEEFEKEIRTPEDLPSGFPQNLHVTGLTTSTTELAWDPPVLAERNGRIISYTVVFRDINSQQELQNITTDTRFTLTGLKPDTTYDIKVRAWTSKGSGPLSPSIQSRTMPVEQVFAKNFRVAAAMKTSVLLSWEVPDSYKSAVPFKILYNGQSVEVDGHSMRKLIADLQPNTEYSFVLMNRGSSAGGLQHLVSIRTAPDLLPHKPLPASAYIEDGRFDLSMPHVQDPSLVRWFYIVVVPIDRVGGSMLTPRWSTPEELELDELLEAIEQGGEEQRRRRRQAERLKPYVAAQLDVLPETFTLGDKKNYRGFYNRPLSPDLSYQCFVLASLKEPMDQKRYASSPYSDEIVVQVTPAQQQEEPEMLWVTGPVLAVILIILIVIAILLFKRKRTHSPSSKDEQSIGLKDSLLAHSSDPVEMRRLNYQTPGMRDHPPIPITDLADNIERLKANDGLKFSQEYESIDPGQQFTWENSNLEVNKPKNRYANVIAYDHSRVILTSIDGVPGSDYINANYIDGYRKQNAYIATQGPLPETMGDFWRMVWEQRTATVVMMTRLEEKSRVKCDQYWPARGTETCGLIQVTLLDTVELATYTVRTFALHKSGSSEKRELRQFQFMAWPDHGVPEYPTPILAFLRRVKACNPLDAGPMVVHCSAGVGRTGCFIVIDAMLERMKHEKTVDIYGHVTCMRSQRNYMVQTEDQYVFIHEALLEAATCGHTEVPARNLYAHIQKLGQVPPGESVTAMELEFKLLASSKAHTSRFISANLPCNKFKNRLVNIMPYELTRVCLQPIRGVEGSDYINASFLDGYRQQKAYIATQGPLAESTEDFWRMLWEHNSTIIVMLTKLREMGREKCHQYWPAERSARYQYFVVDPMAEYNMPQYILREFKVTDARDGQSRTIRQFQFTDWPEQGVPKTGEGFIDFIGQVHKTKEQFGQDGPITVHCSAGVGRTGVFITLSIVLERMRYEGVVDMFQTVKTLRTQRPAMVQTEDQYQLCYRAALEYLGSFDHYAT
Sequence of Cytochrome P450 2C19 (P33261 whole entry): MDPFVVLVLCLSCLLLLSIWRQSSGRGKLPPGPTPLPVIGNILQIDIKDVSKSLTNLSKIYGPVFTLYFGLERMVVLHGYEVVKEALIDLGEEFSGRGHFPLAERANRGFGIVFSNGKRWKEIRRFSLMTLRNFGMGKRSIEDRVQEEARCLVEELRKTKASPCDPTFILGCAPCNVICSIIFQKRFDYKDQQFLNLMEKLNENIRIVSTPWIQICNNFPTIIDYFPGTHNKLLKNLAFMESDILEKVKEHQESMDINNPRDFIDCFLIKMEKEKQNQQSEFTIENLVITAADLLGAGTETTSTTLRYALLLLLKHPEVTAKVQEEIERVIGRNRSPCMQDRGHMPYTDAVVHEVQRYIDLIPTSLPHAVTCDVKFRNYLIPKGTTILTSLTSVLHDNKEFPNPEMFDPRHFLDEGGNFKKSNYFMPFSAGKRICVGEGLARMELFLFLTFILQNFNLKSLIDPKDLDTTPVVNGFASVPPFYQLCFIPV

- Ki [1]: 77 µM
- concentration at 7 h [2]: 260 nM
- IC50 (Cytochrome P450 2D6): > 500 µM
- half-life [3]: > 1 h
- solubility [4]: > 100 µg/mL
- half-life [5]: 0.767 h
- IC50 (Cytochrome P450 1A2): > 500 µM
- IC50 (Cytochrome P450 2C8): > 500 µM
- IC50 (Cytochrome P450 2C9): 40 µM
- IC50 (Cytochrome P450 2A6): > 500 µM
- Activity (Hepatocyte): 70%
- Cmax [6]: 15200 nM
- clearance [7]: 7 mL/min/kg
- concentration at 7 h [8]: 170 nM
- concentration at 1 h [9]: 6900 nM
- Papp [10]: < 1 ×10⁻⁶ cm/s
- half-life [11]: > 1 h
- IC50 (Cytochrome P450 3A4): > 500 µM
- half-life [12]: 10 h
- Ki [13]: > 500 µM
- concentration at 7 h [14]: 370 nM
- IC50 (Cytochrome P450 2C19): > 500 µM
- concentration at 1 h [15]: 3500 nM
SMILES: O=C(O)COc1c(C(=O)O)sc(-c2cccc(NC3CCN(S(=O)(=O)Cc4ccccc4)CC3)c2)c1Br
